# From paper doi:10.1101/2025.05.21.655333v1, “Role of glutamate 292 and lysine 331 in catalysis for the flavoenzyme (S)-6-hydroxynicotine oxidase from Shinella sp. HZN7” (biorxiv, 2025)
# Biological target: T1, NctB (Shinella sp. HZN7, UniProt A0A075BSX9)
# T1 construct: synthetic gene in pET29b (NdeI/XhoI), C-terminal His tag, expressed in E. coli BL21(DE3); FAD-containing flavoenzyme
# Experiment: absorbance spectra before and after SDS/heat release of FAD
# Format: binding
# Conditions: pH 7.5; prosthetic group co-purified with the enzyme
# T1 sequence (A0A075BSX9 whole entry): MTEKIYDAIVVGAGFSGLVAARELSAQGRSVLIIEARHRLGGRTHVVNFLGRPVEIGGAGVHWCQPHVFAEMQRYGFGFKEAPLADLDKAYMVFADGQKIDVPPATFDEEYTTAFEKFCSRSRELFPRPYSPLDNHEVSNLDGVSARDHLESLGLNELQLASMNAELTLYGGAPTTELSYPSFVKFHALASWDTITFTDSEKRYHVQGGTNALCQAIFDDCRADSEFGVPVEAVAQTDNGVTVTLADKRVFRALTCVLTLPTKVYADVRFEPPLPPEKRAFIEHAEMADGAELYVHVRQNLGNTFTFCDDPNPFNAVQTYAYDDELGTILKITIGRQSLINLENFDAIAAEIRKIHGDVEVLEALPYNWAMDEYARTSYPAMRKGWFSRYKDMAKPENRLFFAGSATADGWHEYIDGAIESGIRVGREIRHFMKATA
smiles,measurement,value
Cc1cc2nc3c(=O)[nH]c(=O)nc-3n(C[C@H](O)[C@H](O)[C@H](O)COP(=O)(O)OP(=O)(O)OC[C@H]3O[C@@H](n4cnc5c(N)ncnc54)[C@H](O)[C@@H]3O)c2cc1C [flavin adenine dinucleotide],absorbance spectra before and after SDS/heat release of FAD,The extinction coefficient of FAD bound to NctB was then calculated
